Test results reported in patent US10648979B2, “Molecular probes for detecting gram-negative bacteria in vitro and in vivo” (priority 2014, dated 2020).
Bridge positions count the residues as written; N and C are the ends. Square brackets hold non-standard residues; d marks the D form. Peptide text beside a SMILES is read from it. * marks the point of attachment. ξ: configuration not given here. NBD = O=[N+]([O-])c1ccc(*)c2nonc12; dDab = NCC[C@@H](N)C(=O)O; Dab = NCC[C@H](N)C(=O)O; AEEA = NCCOCCOCC(=O)O; ξDab = NCCC(N)C(=O)O

Assays:
[1] = tested on: bacteria over lung surfactant constituents; assay: Bacterial labelling in the presence of lung surfactant constituents (confocal); type: cell-based
Experimental: Ratio of bacterial fluorescence intensity:surfactant fluorescent intensity quantified from confocal microscopy images.
In vitro experiments were conducted using lung surfactant constituents to investigate the ability of probes to preferentially detect bacteria in the presence of large amounts of surfactant. […] A suspension of surfactant constituents in buffered saline was prepared (20 mg/ml, 65% dipalmitoylphosphatidylcholine, 30% phosphatidylglycerol, 5% palmitic acid with 1 mg/ml tyloxapol as a spreading agent) and incubated with and without A549 epithelial cell monolayer.
Surfactant 5 μg 1,2-Dipalmitoyl-sn-glycero-3-phosphocholine (DPPC) and 2.5 μg L-α-Phosphatidyl-DL-glycerol sodium salt (from egg yolk lecithin; PG) were dissolved in 500 μl chloroform and evaporated under nitrogen to a thin lipid film in a round bottom flask. The lipid film was rehydrated with PBS at 48° C. for 1 hour with agitation (750 rpm) to generate multilammelar vesicles (MLV). These were diluted 1:4 for use in confocal experiments.

[2] = tested on: panel of bacteria (Gram-negative and Gram-positive); assay: Flow cytometry of bacterial labelling; type: cell-based
Experimental: FIG. 7: NBD-UBIdend labels bacteria selectively over mammalian cells in vitro: A) Example images of a clinically relevant bacterial panel with NBD-UBIdend (5 μM; green) counterstained with the fluorescent generic cellular DNA dye Syto-82 (red) imaged by laser scanning confocal microscopy. B) Quantification of bacterial panel labelling NBD-UBIdend 5 μM (optimal concentration) where every bacteria in the panel is brighter when compared with MSSA and NBD-UBINle 10 μM (optimal concentration) C) Flow cytometry data with unstained bacteria (red), NBD-UBINle 15 μM (blue) and NBD-UBIdend 5 μM labelled bacteria (orange). […] Representative images shown, n≥3 for all experiments.
FIG. 8: NBD-PMX selectively labels Gram-negative bacteria in vitro. Example images of the bacterial panel with NBD-PMX imaged by laser scanning confocal microscopy. A) Bacterial panel with NBD-PMX 1 μM (green) and counterstain with syto-82 (red). […] C) Flow cytometric evaluation of bacterial labelling with NBD-PMX showing unstained bacteria (red) and NBD-PMX (blue) labelled bacteria. […] Representative images shown, n≥3 for all experiments.
Bacteria were prepared and counterstained with Syto 82 nucleic acid stain (Invitrogen, Calif., USA) in a shaking heat block at 37° C. and 350 rpm for 20 minutes. […] This was diluted to 500 uL and analysed using BD FACS Calibur using FL-1 and FL-2 channels, with 10,000 events. […]

CC(C)C[C@@H]1NC(=O)[C@@H](Cc2ccccc2)NC(=O)[C@@H](CCN)NC(=O)C(NC(=O)[C@H](CCN)NC(=O)[C@@H](NC(=O)COCCOCCNc2ccc([N+](=O)[O-])c3nonc23)[C@@H](C)O)CCNC(=O)[C@@H]([C@H](C)O)NC(=O)[C@H](CCN)NC(=O)[C@H](CCN)NC1=O (stereo partly drawn) [NBD-PMX] ({NBD-AEEA}-T[Dab][ξDab][dDab][dF]L[Dab][Dab][dT]; lactam 3-C)
selectivity for bacterial labelling over lung surfactant constituents [1]: possess selectivity for bacterial labelling over lung surfactant constituents | bacterial:surfactant fluorescence intensity compared with linear NBD-UBINle ([1]; equimolar NBD concentrations): significantly higher bacterial: surfactant intensity than NBD-UBInle | labelling of Gram-positive bacteria by flow cytometry [2]: No significant labelling of Gram-positive bacteria
